Data from patent US20260152533A1, “COMBINATION INHIBITORS FOR TREATING FIBROSIS” (Memorial Sloan-Kettering Cancer Center, priority 2021, published 2026).
Entries after “also recorded” stand apart in the source; their conditions may differ.

Legend:
Assay type in all cases: cell-based, mouse
[1] = test system: NIH-3T3 cells; assay: Growth experiments, NIH-3T3 cells; conditions: for rescue of TGFβ-induced growth defect: TGFβ, 0.2, 1 or 5 mM metabolite
Text: (§1) NIH-3T3 cells were obtained from ATCC (CRL-1658); 293 T cells were obtained from ATCC (CRL-3216). PSCs were isolated from C57BL/6 mice by differential centrifugation as previously described^49 and their mesenchymal origin was validated by analyzing the expression of various mesenchymal and epithelial markers. MFBs were isolated from FVB/N mice by differential centrifugation as previously described^50. DB7 mouse breast cancer cells were obtained from Alexander Borowsky (University of California Davis Comprehensive Cancer Center, Sacramento, CA, USA) through an MTA to Ohio State University (OSU). KPC (Kras^LSL-G12D; Trp53^LSL-R172H; Pdx1-Cre) mouse PDAC cells were a gift from Scott Lowe (Memorial Sloan Kettering Cancer Center. (MSKCC)). All cells were cultured at 37° C. in 5% carbon dioxide (CO2) and 20% oxygen (O2) and were maintained in Dulbecco's Modified Eagles medium (DMEM) (25 mM D-glucose, 2 mM L-glutamine) supplemented with 10% fetal bovine serum (FBS) (Gemini), 100 units/ml penicillin and 100 μg/ml streptomycin. Primary PSC and MFB cells were kept in culture for no more than ten passages. Experiments with iCAFs and myCAFs were performed as previously described^29. In brief, qPSCs were generated by culturing PSCs in a dome of GFR Matrigel (Corning) in DMEM; iCAFs were generated by culturing PSCs in a dome of GFR Matrigel in DMEM conditioned by KPC cells for 48 h; myCAFs were generated by monolayer culture of PSCs. Differentiation was validated by analyzing the expression of iCAF/myCAF markers^29. For experiments with different glutamine concentrations, cells were seeded in regular DMEM and the medium was changed 5-6 hours later or the following day to glucose and glutamine-free DMEM supplemented with 10% dialyzed FBS (Gemini) and 20 mM D-glucose, 2 mM L-glutamine (100%), 0.4 mM L-glutamine (20%) or 0.2 mM L-glutamine (10%). All media were prepared by the Media Preparation Facility at MSKCC. Cells were verified as mycoplasma-free by the MycoAlert Mycoplasma Detection Kit (Lonza).
A total of 0.2×10^5 cells/well were plated in 24-well culture plates and media was changed and treatments started 5-6 hours later. Cell numbers at the start of treatment (day 0 “d 0”) and 1, 2 and 3 days later were counted using the Multisizer 4e (Beckman) and normalized to the cell number at d 0. In co-culture assays, a fraction of the cell population was analyzed by flow cytometry for GFP expression, and the rest counted with the Multisizer 4e. The number of KPC-GFP cells was determined by multiplying the fraction of GFP+ cells with the total number of cells.

[2] = test system: NIH-3T3 cells; assay: Western blot of NIH-3T3 cells (collagen I, GCN2, ATF4, PC); conditions: for rescue of TGFβ-induced collagen I depletion: metabolite; for GCN2 activation: cell-permeable metabolite
Text: as §1, with “PSCs” for “NIH-3T3 cells were obtained from ATCC (CRL-1658); 293 T cells were obtained from ATCC (CRL-3216). PSCs”
Lysates were generated by incubating cells or ground tumors in RIPA buffer (Millipore); […] of cleared lysate were analyzed by SDS-polyacrylamide gel electrophoresis (SDS-PAGE) as previously described^11. […] The following secondary antibodies were used: anti-rabbit horseradish peroxidase (HRP) (1:5,000; GE, NA934V), anti-mouse HRP (1:5,000; GE, NA931). Quantification of band intensities of collagen I relative to […] or vinculin in tumor allograft experiments was performed with Image Lab software v6.0 (Bio-Rad).

[3] = test system: NIH-3T3 cells; assay: Quantification of gene expression (qPCR), fibroblasts; conditions: for Col1a1 mRNA expression: PC-deleted cells, 10% Gln, 48 hours (FIG. 5D, FIG. 11N)
Experimental: Total RNA was isolated from fibroblasts with Trizol (Life Technologies) according to the manufacturer's instructions, and […] RNA was used for cDNA synthesis using iScript (Bio-Rad). Real-time qPCR analysis was performed in technical triplicates using 1:40 diluted cDNAs and 0.1 μM forward and reverse primers together with Power SYBR Green (Life Technologies) in a QuantStudio 7 Flex (Applied Biosystems). Gene expression was quantified in Microsoft Excel 365 as relative expression ratio using primer efficiencies calculated by a relative standard curve. The geometric mean of the endogenous control genes 18 s, Actb and Rplp0 was used as reference sample.

[4] = PC-deleted cells, low Gln, 48 hours (FIG. 4B; MFBs FIG. 11E)
[5] = low Gln (10%), TGFβ, 48 hours (FIG. 1E)

Compound: COC(=O)CC[C@H](N)C(=O)OC [dm-Glu, L-glutamic acid dimethylester]
- rescue of TGFβ-induced growth defect ([1]; 10% Gln, 3 days): sufficient to restore
- rescue of TGFβ-induced collagen I depletion ([2]; 10% Gln, TGFβ, 48 hours): sufficient to restore
- collagen I levels [2, 4]: increased
- GCN2 activation ([2]; low Gln (10%), TGFβ, 48 hours): prevented
- Col1a1 mRNA expression [3]: rescued

Compound: TGFβ: transforming growth-factor beta; TGFβ-1 purchased from Peprotech
- cell proliferation ([1]; 10% Gln, TGFβ): ceased to proliferate
- cell proliferation ([1]; 100% and 50% Gln, TGFβ 2 ng/mL, 3 days): did not change
- collagen I production ([2]; 10% Gln, TGFβ): ceased to proliferate and produce collagen I
- collagen I levels ([2]; 20% Gln, TGFβ, 48 hours (FIG. 1B)): no longer able to increase
- repressive phosphorylation of the E1α subunit of the pyruvate dehydrogenase (PDH) complex ([2]; 100% Gln, TGFβ 48 hours (FIG. 3B)): reduced
- collagen I levels in growing cells ([2]; 100% and 50% Gln, TGFβ, 48 hours): upregulated
- PC protein levels ([2]; all fibroblast types analysed, TGFβ 48 hours): reduced
- ATF4 [2, 5]: upregulated
- GCN2 phosphorylation [2, 5]: displayed phosphorylation
- PC transcript levels ([3]; all fibroblast types analysed, 100% Gln, TGFβ 24 hours): reduced

Compound: COC(=O)CCC(=O)C(=O)OC [dm-αKG, dimethyl alpha-ketoglutarate]
- rescue of TGFβ-induced growth defect ([1]; 10% Gln, 3 days): able to rescue
- rescue of TGFβ-induced collagen I depletion ([2]; 10% Gln, TGFβ, 48 hours): able to rescue
- collagen I levels [2, 4]: increased
- GCN2 activation ([2]; low Gln (10%), TGFβ, 48 hours): prevented; also recorded: suppressed
- Col1a1 mRNA expression [3]: rescued
